Data taken from US20090133318A1, “Anthranilamide insecticides” (priority 2004, published 2009).

Assays:
Assay type in all cases: in vivo
[1] = test system: diamondback moth (Plutella xylostella); assay: Test A: control of diamondback moth, foliar spray on radish plant
Text: For evaluating control of diamondback moth (Plutella xylostella) the test unit consisted of a small open container with a 12-14-day-old radish plant inside. This was pre-infested with 10-15 neonate larvae on a piece of insect diet by use of a core sampler to remove a plug from a sheet of hardened insect diet having many larvae growing on it and transfer the plug containing larvae and diet to the test unit. The larvae moved onto the test plant as the diet plug dried out.
Test compounds or mixtures were formulated using a solution containing 10% acetone, 90% water and 300 ppm X-77™ Spreader Lo-Foam Formula non-ionic surfactant containing alkylarylpolyoxyethylene, free fatty acids, glycols and 2-propanol (Loveland Industries, Inc. Greeley, Colo., USA). The formulated compounds or mixtures were applied in 1 mL of liquid through a SUJ2 atomizer nozzle with ⅛ JJ custom body (Spraying Systems Co. Wheaton, Ill., USA) positioned 1.27 cm (0.5 inches) above the top of each test unit. […] For experimental mixtures in these tests, to obtain the desired mixture concentrations of each compound, twice the desired concentration of each of the two mixture partner compounds were mixed together in equal volumes.
After spraying of the formulated test compound or mixture, each test unit was allowed to dry for 1 hour and then a black, screened cap was placed on top. The test units were held for 6 days in a growth chamber at 25° C. and 70% relative humidity. Plant feeding damage was then visually assessed based on foliage consumed.

[2] = test system: green peach aphid (Myzus persicae); assay: Test C: control of green peach aphid through contact and/or systemic means, radish plant
Experimental: (§1) Test compounds or mixtures were formulated using a solution containing 10% acetone, 90% water and 300 ppm X-77™ Spreader Lo-Foam Formula non-ionic surfactant containing alkylarylpolyoxyethylene, free fatty acids, glycols and 2-propanol (Loveland Industries, Inc. Greeley, Colo., USA). The formulated compounds or mixtures were applied in 1 mL of liquid through a SUJ2 atomizer nozzle with ⅛ JJ custom body (Spraying Systems Co. Wheaton, Ill., USA) positioned 1.27 cm (0.5 inches) above the top of each test unit. All experimental compounds in these tests were sprayed at 10 ppm replicated three times. For experimental mixtures in these tests, to obtain the desired mixture concentrations of each compound, twice the desired concentration of each of the two mixture partner compounds were mixed together in equal volumes.
For evaluating control of green peach aphid (Myzus persicae) through contact and/or systemic means, the test unit consisted of a small open container with a 12- to 15-day-old radish plant inside. This was pre-infested by placing on a leaf of the test plant 30-40 aphids on a piece of leaf excised from a culture plant (cut-leaf method). The larvae moved onto the test plant as the leaf piece desiccated. After pre-infestation, the soil of the test unit was covered with a layer of sand.
All test compounds were formulated and sprayed at 50 ppm as described for Test A and replicated three times. Test mixtures were formulated as described for Test A and replicated three times. After spraying of the formulated test compound or mixture, each test unit was allowed to dry for 1 hour and then a black, screened cap was placed on top. The test units were held for 6 days in a growth chamber at 19-21° C. and 50-70% relative humidity. Dead and total number of aphids were counted in each test unit to determine percent mortality.

[3] = test system: corn planthopper (Peregrinus maidis); assay: Test F: control of corn planthopper through contact and/or systemic means, corn plant (mixtures)
Experimental: as §1
For evaluating control of corn planthopper (Peregrinus maidis) through contact and/or systemic means, each test unit consisted of a small open cylindrical container with a 3- to 4 day-old corn (maize) plant (spike) inside. White sand was added to the top of the soil prior to application. Test mixtures were formulated and sprayed with 3 replications as described for Test A. After spraying, the test units were allowed to dry for 1 hour before they were post-infested with 10 to 20 corn planthoppers (18- to 20-day-old nymphs) by sprinkling them onto the sand with a salt shaker. A black, screened cap was placed on the top of each container. The test units were held for 6 days in a growth chamber at 19-21° C. and 50-70% relative humidity. Dead and total number of corn planthoppers were counted in each test unit to determine percent mortality.

[4] = test system: western flower thrips (Frankliniella occidentalis Pergande); assay: Test G: control of western flower thrips through contact and/or systemic means, bean plant (mixtures)
Experimental: as §1
For evaluating control of the western flower thrips (Frankliniella occidentalis Pergande) through contact and/or systemic means, each test unit consisted of a small open container with a 5- to 7-day-old bean (var. Soleil) plant inside.
Test mixtures were formulated and sprayed with 3 replications as described for Test A. After spraying, the test units were allowed to dry for 1 hour, 22 to 27 adult thrips were added to each unit and then a black, screened cap was placed on top. The test units were held for 7 days at 25° C. and 45-55% relative humidity. The amount of plant damage for each test unit was rated to determine the percent plant protection.

## Cc1cc(Cl)cc(C(=O)NCC2CC2)c1NC(=O)c1cc(Br)nn1-c1ncccc1Cl [Compound 2]
[1]; 0.03 ppm
  % protection (obs): 37%
[1]; 0.04 ppm
  % protection (obs): 77%
[1]; 0.06 ppm
  % protection (obs): 93%
[2]; 8 ppm
  Mortality (obs): 4%
[2]; 50 ppm
  Mortality (obs): 17%
[2]; 250 ppm
  Mortality (obs): 76%
[3]; 30 ppm
  Mortality (obs): 2%
[3]; 100 ppm
  Mortality (obs): 10%
[3]; 250 ppm
  Mortality (obs): 31%
[4]; 5 ppm
  % protection (obs): 20%
[4]; 150 ppm
  % protection (obs): 27%
[4]; 250 ppm
  % protection (obs): 53%

## Imidacloprid
[1]; 0.8 ppm
  % protection (obs): 73%
[1]; 17 ppm
  % protection (obs): 80%
[1]; 50 ppm
  % protection (obs): 90%
[2]; 0.08 ppm
  Mortality (obs): 5%
[2]; 0.15 ppm
  Mortality (obs): 44%
[2]; 0.3 ppm
  Mortality (obs): 50%
[3]; 0.08 ppm
  Mortality (obs): 2%
[3]; 0.2 ppm
  Mortality (obs): 10%
[3]; 0.8 ppm
  Mortality (obs): 71%
[4]; 11 ppm
  % protection (obs): 27%
[4]; 77 ppm
  % protection (obs): 40%
[4]; 250 ppm
  % protection (obs): 90%

## Thiamethoxam
[1]; 30 ppm
  % protection (obs): 43%
[1]; 40 ppm
  % protection (obs): 73%
[1]; 50 ppm
  % protection (obs): 90%
[2]; 0.2 ppm
  Mortality (obs): 44%
[2]; 0.4 ppm
  Mortality (obs): 73%
[2]; 0.6 ppm
  Mortality (obs): 87%
[3]; 0.2 ppm
  Mortality (obs): 19%
[3]; 0.4 ppm
  Mortality (obs): 73%
[3]; 0.6 ppm
  Mortality (obs): 100%
[4]; 5 ppm
  % protection (obs): 0%
[4]; 70 ppm
  % protection (obs): 77%
[4]; 250 ppm
  % protection (obs): 100%
